Measured values reported in ChEMBL document CHEMBL1201862, “PubChem BioAssay data set” (2004).
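Step 1: Grow cells in 96-well plates. Step 2: Expose to compound for 48 hours at 5 concentrations. Step 3: Interpolate endpoints linearly; if unreached, use highest concentration. GI50 = concentration required for 50% inhibition of growth.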 Calls of active or inactive are those of the source. No stated cut-off is given here; in the data, active = GI50 up to about 1.1 µM and inactive = higher.

Key:
Test in all cases: inhibition of tumour cell growth, NCI panel, 48 h
[1] = test system: SN12C
[2] = test system: HL-60
[3] = test system: HCT-116
[4] = test system: NCI-H23
[5] = test system: EKVX
[6] = test system: M14
[7] = test system: RXF 393
[8] = test system: K562
[9] = test system: A549
[10] = test system: UO-31
[11] = test system: MDA-N
[12] = test system: A498
[13] = test system: HCC 2998
[14] = test system: MDA-MB-435
[15] = test system: KM12
[16] = test system: SK-OV-3
[17] = test system: DU-145
[18] = test system: SF-295
[19] = test system: NCI/ADR-RES
[20] = test system: NCI-H522
[21] = test system: T47D
[22] = test system: NCI-H226
[23] = test system: Malme-3M
[24] = test system: SK-MEL-28
[25] = test system: SK-MEL-5
[26] = test system: MCF7
[27] = test system: MDA-MB-231
[28] = test system: BT-549
[29] = test system: CCRF-CEM
[30] = test system: HT-29
[31] = test system: UACC-62
[32] = test system: Hs-578T
[33] = test system: HOP-62
[34] = test system: SK-MEL-2
[35] = test system: NCI-H460
[36] = test system: ACHN
[37] = test system: UACC-257
[38] = test system: SF-539
[39] = test system: SNB-19
[40] = test system: LOX IMVI
[41] = test system: CAKI-1
[42] = test system: MOLT-4
[43] = test system: COLO 205
[44] = test system: U-251
[45] = test system: SF-268
[46] = test system: 786-0
[47] = test system: PC-3
[48] = test system: SR
[49] = test system: OVCAR-3
[50] = test system: OVCAR-8
[51] = test system: RPMI-8226
[52] = test system: HOP-92
[53] = test system: HCT-15
[54] = test system: TK-10
[55] = test system: SW-620
[56] = test system: IGROV-1
[57] = test system: OVCAR-4
[58] = test system: SNB-75

Measured: GI50

O/N=C/C1c2ccccc2-c2ccccc21
inactive: [1] 16.4 µM | [2] 31.3 µM | [3] 16.3 µM | [4] 17.9 µM | [5] 13.6 µM | [6] 16.9 µM | [7] 19.5 µM | [8] 29.9 µM | [9] 19.2 µM | [10] 15.1 µM | [11] 14.2 µM | [12] 17.5 µM | [13] 15.9 µM | [14] 15.8 µM | [15] 17.4 µM | [16] 14.4 µM | [17] 20.8 µM | [18] 22.5 µM | [19] 16.8 µM | [20] 16.9 µM | [21] 19.3 µM | [22] 15 µM | [23] 15.2 µM | [24] 15.7 µM | [25] 12.5 µM | [26] 16 µM | [27] 14.6 µM | [28] 16.9 µM | [29] 19.5 µM | [30] 14.8 µM | [31] 15 µM | [32] 18.7 µM | [33] 17.9 µM | [34] 17.1 µM | [35] 17.3 µM | [36] 16.4 µM | [37] 17.5 µM | [38] 16.2 µM | [39] 18.4 µM | [40] 23 µM | [41] 14 µM | [42] 24 µM | [43] 16.6 µM | [44] 19.4 µM | [45] 15.3 µM | [46] 3.7 µM | [47] 17.2 µM | [48] 23.2 µM | [49] 16.1 µM | [50] 19.6 µM | [51] 21.5 µM | [52] 12.8 µM | [54] 18.9 µM | [55] 16.6 µM
19.5 µM: [53]

CCc1[nH]nc(C(N)=O)c1/N=N/N(C)C
68.4 µM: [53]
inactive: [1] 44 µM | [2] 9.62 µM | [3] 72.1 µM | [56] 34.8 µM | [57] > 100 µM | [4] 54.1 µM | [5] 57.5 µM | [6] > 100 µM | [58] 65.9 µM | [7] > 100 µM | [8] 1.13 µM | [9] 43.5 µM | [10] 2.58 µM | [11] > 100 µM | [12] > 100 µM | [13] > 100 µM | [14] 64.6 µM | [15] 56.5 µM | [16] 91.6 µM | [17] 46.2 µM | [18] 39.7 µM | [19] 94.8 µM | [20] 37.3 µM | [21] 68.4 µM | [22] 84.1 µM | [23] 78.3 µM | [24] > 100 µM | [25] 70 µM | [26] 30.9 µM | [27] > 100 µM | [28] 21.8 µM | [29] 28.2 µM | [30] > 100 µM | [31] 34.4 µM | [32] 67.9 µM | [33] 82.6 µM | [34] > 100 µM | [36] 36.5 µM | [37] > 100 µM | [38] 78.7 µM | [39] > 100 µM | [40] 43.2 µM | [41] 24.8 µM | [42] 6.46 µM | [43] 98.9 µM | [44] 48.3 µM | [45] 47.2 µM | [46] 89.7 µM | [47] > 100 µM | [48] 10.1 µM | [49] > 100 µM | [50] 73.1 µM | [51] 81.5 µM | [52] 36.4 µM | [54] > 100 µM | [55] > 100 µM
